This test relates to Caco-2. Briefly: Apparent permeability across Caco-2 cells. It counts as functional, cell-based. As to conditions: Homo sapiens. Background: Passage across Caco-2 layers is used to estimate intestinal permeability.

As a reminder, the Papp is a coefficient for how fast a substance crosses the barrier.

Regarding `CC(N)[C@@H](NC(=O)CCC(=O)OCCNC(=S)Nc1ccc(-c2c3ccc(=O)cc-3oc3cc(O)ccc23)c(C(=O)O)c1)C(=O)NCCCC(=O)N[C@H](CCCNC(=N)N)C(=O)N[C@H](CCCNC(=N)N)C(=O)N[C@H](CCCNC(=N)N)C(=O)N[C@H](CCCNC(=N)N)C(=O)N[C@H](CCCNC(=N)N)C(=O)N[C@H](CCCNC(=N)N)C(=O)N[C@H](CCCNC(=N)N)C(N)=O` (some centres undefined), the Papp came out at 0.48 ×10⁻⁶ cm/s.

As for `N=C(N)NCCC[C@@H](NC(=O)[C@@H](CCCNC(=N)N)NC(=O)[C@@H](CCCNC(=N)N)NC(=O)[C@@H](CCCNC(=N)N)NC(=O)[C@@H](CCCNC(=N)N)NC(=O)[C@@H](CCCNC(=N)N)NC(=O)[C@@H](CCCNC(=N)N)NC(=O)CCCNC(=O)[C@@H](CN)NC(=O)CCC(=O)OCCNC(=S)Nc1ccc(-c2c3ccc(=O)cc-3oc3cc(O)ccc23)c(C(=O)O)c1)C(N)=O`, the Papp is 0.75 ×10⁻⁶ cm/s.

For the compound `O=C(O)c1cc(NC(=S)NCCO)ccc1-c1c2ccc(=O)cc-2oc2cc(O)ccc12`, the Papp came to 0.26 ×10⁻⁶ cm/s.

As for `C[C@@H](NC(=O)CCC(=O)OCCNC(=S)Nc1ccc(-c2c3ccc(=O)cc-3oc3cc(O)ccc23)c(C(=O)O)c1)C(=O)NCCCC(=O)N[C@H](CCCNC(=N)N)C(=O)N[C@H](CCCNC(=N)N)C(=O)N[C@H](CCCNC(=N)N)C(=O)N[C@H](CCCNC(=N)N)C(=O)N[C@H](CCCNC(=N)N)C(=O)N[C@H](CCCNC(=N)N)C(=O)N[C@H](CCCNC(=N)N)C(N)=O`, the Papp turned out to be 0.41 ×10⁻⁶ cm/s.
